Reference: article PMC8262356, “SLC26A6-selective inhibitor identified in a small-molecule screen blocks fluid absorption in small intestine” (JCI Insight, 2021)

Target: T1, ENaC (Homo sapiens, UniProt P37088+P51168+P51170)
T1 construct: endogenous in cells; host or cells: well-differentiated human bronchial epithelial (HBE) cells at air-liquid interface
T1 sequence (P37088 1-669): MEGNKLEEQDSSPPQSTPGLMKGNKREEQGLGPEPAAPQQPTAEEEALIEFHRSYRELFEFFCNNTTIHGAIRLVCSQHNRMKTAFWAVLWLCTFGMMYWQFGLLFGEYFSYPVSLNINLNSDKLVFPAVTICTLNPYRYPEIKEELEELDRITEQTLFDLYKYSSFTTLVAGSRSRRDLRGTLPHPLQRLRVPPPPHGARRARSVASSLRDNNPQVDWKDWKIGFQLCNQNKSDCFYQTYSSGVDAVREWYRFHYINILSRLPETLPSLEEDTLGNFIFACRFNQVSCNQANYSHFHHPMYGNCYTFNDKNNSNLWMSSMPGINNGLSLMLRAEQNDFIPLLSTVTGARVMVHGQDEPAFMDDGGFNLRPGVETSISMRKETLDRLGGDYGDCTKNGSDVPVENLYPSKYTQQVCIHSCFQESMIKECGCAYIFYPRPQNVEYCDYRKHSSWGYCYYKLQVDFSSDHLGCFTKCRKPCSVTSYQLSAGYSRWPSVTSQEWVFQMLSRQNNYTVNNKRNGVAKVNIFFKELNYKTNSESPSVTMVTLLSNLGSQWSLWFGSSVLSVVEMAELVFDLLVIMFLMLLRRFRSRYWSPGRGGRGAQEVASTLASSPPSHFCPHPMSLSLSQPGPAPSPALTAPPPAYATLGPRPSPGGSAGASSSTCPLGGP
T1 sequence (P51168 1-640): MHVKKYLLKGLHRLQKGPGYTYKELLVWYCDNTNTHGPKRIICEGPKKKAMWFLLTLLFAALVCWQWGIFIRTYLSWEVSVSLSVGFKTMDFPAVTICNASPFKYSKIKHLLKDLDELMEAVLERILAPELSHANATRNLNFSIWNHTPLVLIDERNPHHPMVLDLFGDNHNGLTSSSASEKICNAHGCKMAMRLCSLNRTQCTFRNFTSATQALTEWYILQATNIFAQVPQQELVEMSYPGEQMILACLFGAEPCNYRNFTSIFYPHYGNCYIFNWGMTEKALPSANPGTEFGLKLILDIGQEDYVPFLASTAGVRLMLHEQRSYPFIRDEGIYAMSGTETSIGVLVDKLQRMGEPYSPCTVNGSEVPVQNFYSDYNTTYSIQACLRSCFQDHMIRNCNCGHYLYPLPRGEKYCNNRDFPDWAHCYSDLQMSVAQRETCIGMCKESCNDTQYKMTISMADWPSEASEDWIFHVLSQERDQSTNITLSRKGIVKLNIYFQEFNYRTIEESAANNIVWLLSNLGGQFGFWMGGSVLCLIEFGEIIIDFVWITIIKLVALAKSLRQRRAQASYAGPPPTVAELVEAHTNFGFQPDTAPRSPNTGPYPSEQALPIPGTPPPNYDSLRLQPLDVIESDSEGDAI
T1 sequence (P51170 1-649): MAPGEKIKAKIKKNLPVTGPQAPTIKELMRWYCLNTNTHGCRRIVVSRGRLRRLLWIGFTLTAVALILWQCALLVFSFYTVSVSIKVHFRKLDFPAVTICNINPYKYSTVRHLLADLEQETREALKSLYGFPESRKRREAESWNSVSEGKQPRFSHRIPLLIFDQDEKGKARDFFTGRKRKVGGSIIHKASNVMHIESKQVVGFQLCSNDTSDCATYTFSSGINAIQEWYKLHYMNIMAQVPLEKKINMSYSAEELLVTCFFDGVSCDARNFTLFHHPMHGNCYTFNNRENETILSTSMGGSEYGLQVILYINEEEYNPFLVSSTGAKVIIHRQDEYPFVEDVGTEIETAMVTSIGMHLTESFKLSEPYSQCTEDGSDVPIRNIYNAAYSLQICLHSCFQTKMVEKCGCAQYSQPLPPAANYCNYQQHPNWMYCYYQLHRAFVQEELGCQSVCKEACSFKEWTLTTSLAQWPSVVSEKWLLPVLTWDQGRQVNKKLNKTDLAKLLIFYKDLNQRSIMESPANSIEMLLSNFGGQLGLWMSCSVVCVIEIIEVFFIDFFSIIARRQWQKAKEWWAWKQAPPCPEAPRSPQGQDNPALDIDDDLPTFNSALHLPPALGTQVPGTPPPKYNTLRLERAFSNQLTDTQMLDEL
Test: Short-circuit current in well-differentiated HBE cells, amiloride response
Type: cell-based
Settings: 25 μM pretreatment
Experimental: PAT1inh-B01 selectivity was studied by testing its effects on related SLC26A family anion transporters and the Cl^– channel TMEM16A. These measurements used a similar Cl^–/I^– exchange protocol, but FRT cells separately expressed each of the SLC26A family members or TMEM16A. […] PAT1inh-B01 selectivity was also tested by short-circuit current (Isc) in well-differentiated human bronchial epithelial (HBE) cells, which have a complex ion transport mechanism that includes cystic fibrosis transmembrane conductance regulator (CFTR), epithelial Na^+ channel (ENaC), and Ca^+2-activated chloride channels (CaCCs) ([13]). […] Potential PAT1inh-B01 cytotoxicity was studied in FRT cells.
Figure 3 PAT1inh-B01 selectivity and cytotoxicity. […] Cl^–/I^– exchange or I^– influx measured in FRT cells coexpressing YFP and SLC26A isoforms or TMEM16A, with data shown for 25 μM PAT1inh-B01, DMSO vehicle control, and 500 μM niflumic acid (positive control for SLC26A transporters) or 10 μM TMinh-23 (positive control for TMEM16A). […] (C) (left) Short-circuit current (Isc) in well-differentiated HBE cells measured in the absence (top) and presence (bottom) of 25 μM PAT1inh-B01. […]
YFP-based cellular assays of slc26a3, slc26a4, SLC26A9, and TMEM16A function were performed as described previously ([7]). […] The activities of ENaC, CFTR, and CaCC were determined using well-differentiated HBE cells as described previously ([13]). […]

effect on ENaC activity (Isc response to amiloride): no significant effect
SMILES: Cc1c(Br)c(C(F)(F)F)nn1CC(=O)N1CCc2nc3cc(-c4ccccc4)[nH]n3c(=O)c2C1 [PAT1inh-B01]
